Laboratory results as given in patent US20240383922A1, “KRAS Modulating Compounds” (Gilead Sciences, Inc., priority 2023, published 2024).
pEC50: −log10 of the molar value.

Columns and labels:
[1] = system: cellular pERK in Kuramochi (WT KRAS) cell-line; assay: Cell based pERK assay (HTRF), Kuramochi; details: Kuramochi (WT KRAS) cells, 2 hours incubation
Method: (§1) Compounds were tested in a 384-well assay format for their ability to inhibit cellular pERK in Kuramochi (WT KRAS), MIA-PaCa-2 (KRAS-G12C), ASPC-1 (KRAS G12D), and NCI-H441 (KRAS-G12V) cell-lines. Compounds were serially diluted (1:3) in DMSO. On day −1, 80 uL of cells were plated per well in the 384 well tissue-culture plates (Greiner: Cat #781080) to seed 5000 cells per wells of AsPC-1 or 7500 cells of MIA-PaCa-2, NCI-H441, and Kuramochi cell lines in RPMI (Corning: Cat #10-040-CM) with 10% fetal bovine serum (FBS) (HyClone: Cat #SH30071-03) and 1× penicillin-streptomycin-glutamate (PSG) (Corning: Cat #30-009-CI) for […] and Kuramochi cell lines and DMEM (Corning: Cat #15-018-CM) with […] and 1× PSG for MKA-PaCa-2 cell line. The plates were then incubated overnight at 37° C. and 5% CO2. On day 0, 400 nL of compound/well was added into the cell plates and mixed 5 times by pipetting using a Beckmann Biomek FX. The cell plates were then incubated for 2 hours at 37° C. and 5% CO2. HTRF Advanced Phospho-ERK1/2 ([…]) Detection Kits (PerkinElmer: Cat #64AERPEG) were used to prepare the lysis and detection solution according to manufacturer protocol. Following the 2 hour incubation, 70 μL of medium was aspirated from the plates and 10 uL of lysis and detection solution was added to the plates using a Biotek EL406 washer and dispenser. Plates were sealed and stored overnight at room temperature. HTRF ratio (665 nm/615 nm) was read by Envision multimode reader (PerkinElmer) the next day. The TR-FRET ratios were normalized to a positive (saturating concentration of known inhibitor) and negative (DMSO) control and plotted against the log of compound concentration. IC50 values were defined as the compound concentration that causes a […] in normalized signal and were calculated using a sigmoidal dose-response model to generate curve fits.

[2] = system: cellular pERK in MIA-PaCa-2 (KRAS-G12C) cell-line; assay: Cell based pERK assay (HTRF), MIA-PaCa-2; details: Homo sapiens; MIA-PaCa-2 (KRAS-G12C) cells, 2 hours incubation; read-out: MIAPaCa2 pERK EC50
Method: as §1

[3] = system: cellular pERK in NCI-H441 (KRAS-G12V) cell-line; assay: Cell based pERK assay (HTRF), NCI-H441; details: Homo sapiens; NCI-H441 (KRAS-G12V) cells, 2 hours incubation
Method: as §1

[4] = system: cellular pERK in ASPC-1 (KRAS G12D) cell-line; assay: Cell based pERK assay (HTRF), ASPC-1; details: Homo sapiens, ASPC1; ASPC-1 (KRAS G12D) cells, 2 hours incubation
Method: as §1

pEC50 [1]	pEC50 [2]	pEC50 [3]	pEC50 [4]	SMILES
8.87	9.96	9.38	8.90	C#Cc1c(F)ccc2cc(O)cc(-c3nc4c5c(nc(OC[C@@]67CCCN6C[C@H](F)C7)nc5c3F)N3CCCOC[C@@H]3CC4)c12 [Example 6-1, 5-ethynyl-6-fluoro-4-((S)-1-fluoro-12-(((2R,7aS)-2-fluorotetrahydro-1H-pyrrolizin-7a(5H)-yl)methoxy)-4,5,5a,6,9,10-hexahydro-8H-7-oxa-3,10a,11,13-tetraazanaphtho[1,8-ab]heptalen-2-yl)naphthalen-2-ol]
6.40	6.17	6.04	6.03	C#Cc1c(F)ccc2cc(O)cc(-c3nc4c5c(nc(OC[C@@]67CCCN6C[C@H](F)C7)nc5c3F)N3CCCCC[C@H]3CC4)c12 [Example 12-1, 5-ethynyl-6-fluoro-4-((S)-1-fluoro-12-(((2R,7aS)-2-fluorotetrahydro-1H-pyrrolizin-7a(5H)-yl)methoxy)-4,5,5a,6,7,8,9,10-octahydro-3,10a,11,13-tetraazanaphtho[1,8-ab]heptalen-2-yl)naphthalen-2-ol]
7.78	8.77	8.09	7.61	C#Cc1c(F)ccc2cc(O)cc(-c3nc4c5c(nc(OCC67CCCN6CCC7)nc5c3F)N3CCCOC[C@@H]3CC4)c12 [Example 6-11]
< 6.00	< 6.00	< 6.00	< 6.00	C#Cc1c(F)ccc2cccc(-c3nc4c5c(nc(OC[C@@]67CCCN6C[C@H](F)C7)nc5c3F)N3CCCOC[C@H]3CC4)c12 [Example 6-4]
9.02	8.10	8.50	7.84	C#Cc1c(F)c(F)cc2cc(N)cc(-c3nc4c5c(nc(OC[C@@]67CCCN6C[C@H](F)C7)nc5c3F)N3CCCOC[C@@H]3CC4)c12 [Example 23-1, 5-ethynyl-6,7-difluoro-4-((S)-1-fluoro-12-(((2R,7aS)-2-fluorotetrahydro-1H-pyrrolizin-7a(5H)-yl)methoxy)-4,5,5a,6,9,10-hexahydro-8H-7-oxa-3,10a,11,13-tetraazanaphtho[1,8-ab]heptalen-2-yl)naphthalen-2-amine]
8.09	7.86	7.68	7.63	CCc1c(F)ccc2cc(O)cc(-c3nc4c5c(nc(OC[C@@]67CCCN6C[C@H](F)C7)nc5c3F)N3CCCOCC3CC4)c12 (stereo partly drawn) [Example 8-2]
8.79	9.74	8.97	8.83	C#Cc1c(F)ccc2cc(O)cc(-c3nc4c5c(nc(OC[C@@]67CCCN6CC(=C)C7)nc5c3F)N3CCCOCC3CC4)c12 (stereo partly drawn) [Example 22-2]
8.09	6.99	7.26	7.04	C#Cc1c(F)ccc2cc(O)cc(-c3nc4c5c(nc(OC[C@@]67CCCN6C[C@@H](F)C7)nc5c3F)N3CCCOC[C@@H]3CC4)c12 [Example 22-1, 5-ethynyl-6-fluoro-4-((S)-1-fluoro-12-(((2S,7aS)-2-fluorotetrahydro-1H-pyrrolizin-7a(5H)-yl)methoxy)-4,5,5a,6,9,10-hexahydro-8H-7-oxa-3,10a,11,13-tetraazanaphtho[1,8-ab]heptalen-2-yl)naphthalen-2-ol]
6.24	< 6.00	< 6.00	< 6.00	Oc1cc(-c2nc3c4c(nc(OC[C@@]56CCCN5C[C@H](F)C6)nc4c2F)N2CCCOC[C@@H]2CC3)c2c(Cl)cccc2c1 [Example 19-1, 5-chloro-4-((S)-1-fluoro-12-(((2R,7aS)-2-fluorotetrahydro-1H-pyrrolizin-7a(5H)-yl)methoxy)-4,5,5a,6,9,10-hexahydro-8H-7-oxa-3,10a,11,13-tetraazanaphtho[1,8-ab]heptalen-2-yl)naphthalen-2-ol]
